Where two headings read alike, the source gives them in different places.
How the values were obtained:
[1] = in vivo interaction with buprenorphine; cited from earlier work
[2] = human, in vivo
[3] = with lopinavir/ritonavir; cited from earlier work

Compound: Cc1c(O)cccc1C(=O)N[C@@H](CSc1ccccc1)[C@H](O)CN1C[C@H]2CCCC[C@H]2C[C@H]1C(=O)NC(C)(C)C [nelfinavir]
- Effect on pharmacokinetics / metabolism of buprenorphine [1]: neither nelfinavir nor the combination of lopinavir/ritonavir had any significant effect

Compound: CO[C@]12CC[C@@]3(C[C@@H]1[C@](C)(O)C(C)(C)C)[C@H]1Cc4ccc(O[C@@H]5O[C@H](C(=O)O)[C@@H](O)[C@H](O)[C@H]5O)c5c4[C@@]3(CCN1CC1CC1)[C@H]2O5 [B3G, buprenorphine-3-glucuronide]
- Change in renal clearance [2]: No significant changes

Compound: CC(C)Nc1cccnc1N1CCN(C(=O)c2cc3cc(NS(C)(=O)=O)ccc3[nH]2)CC1 [delavirdine]
- Effect on pharmacokinetics / metabolism of buprenorphine [1]: inhibition of buprenorphine metabolism

Compound: O=C1Nc2ccc(Cl)cc2[C@@](C#CC2CC2)(C(F)(F)F)O1 [efavirenz]
- Effect on pharmacokinetics / metabolism of buprenorphine [1]: induction

Compound: CC(C)c1nc(CN(C)C(=O)N[C@H](C(=O)N[C@@H](Cc2ccccc2)C[C@H](O)[C@H](Cc2ccccc2)NC(=O)OCc2cncs2)C(C)C)cs1 [ritonavir]
- Effect on pharmacokinetics / metabolism of buprenorphine [1]: increased exposure to buprenorphine

Compound: C[C@H](Cn1cnc2c(N)ncnc21)OCP(=O)(O)O [tenofovir]
- Change in renal clearance [3]: decrease

— publication PMC3723409 (Basic & clinical pharmacology & toxicology, 2009)
